Patent publication US7238689B2, “Isoxazoline derivative and herbicide comprising the same as active ingredient” (Ihara Chemical Industry Co., Ltd., priority 2001, dated 2007)

Columns and labels:
Type in all cases: in vivo
Parameters in all cases: scale not given here
[1] = system: Setaria viridis (L.) Beauv.; assay: Herbicidal effect by upland field soil treatment; details: active ingredient 1000 g/ha, examined at 21st day from treatment
Description: (§1) An upland field soil was filled in a plastic pot of 80 cm^2. Seeds of Echinochloa crus-galli (L.) Beauv. var. crusgalli and Setaria viridis (L.) Beauv. were sowed, followed by covering with the same soil. […] Then, breeding was made in a greenhouse, and the herbicidal effect of each wettable powder was examined at the 21st day from the treatment in accordance with the standard shown in Table 21.

[2] = system: Echinochloa crus-galli (L.) Beauv. var. crusgalli; assay: Herbicidal effect by upland field soil treatment; details: active ingredient 1000 g/ha, examined at 21st day from treatment
Description: as §1

[3] = system: Echinochloa oryzicola Vasing; assay: Herbicidal effect by paddy field soil treatment; details: wettable powder, active ingredient 1000 g/ha, examined at the 21st day from the treatment
Method: (§2) A paddy field soil was filled in a plastic pot of 100 cm^2 and subjected to puddling. Then, seeds of Echinochloa oryzicola Vasing and Monochoria vaginalis (Murm. f.) Presl var. plantaginea (Roxb.) Solms-Laub. were sowed and water was filled in a depth of 3 cm. Next day, wettable powders produced in accordance with the Formulation 1 were diluted with water and dropped on the water surface. The application amount of each wettable powder was 1,000 g per 1 hectare in terms of the active ingredient. Then, breeding was made in a greenhouse, and the herbicidal effect of each wettable powder was examined at the 21st day from the treatment in accordance with the standard shown in Table 21.

[4] = system: Monochoria vaginalis (Murm. f.) Presl var. plantaginea (Roxb.) Solms-Laub.; assay: Herbicidal effect by paddy field soil treatment; details: wettable powder, active ingredient 1000 g/ha, examined at the 21st day from the treatment
Method: as §2

Compound | herbicidal effect (index per standard of Table 21), Setaria viridis (L.) Beauv. [1] | herbicidal effect (index per standard of Table 21), Echinochloa curs-galli (L.) Beauv. Var. crus-galli [2] | Herbicidal effect index, Echinochloa oryzicola Vasing [3] | Herbicidal effect index, Monochoria vaginalis (Burm. F.) Presl var. plantaginea (Roxb.) Solms-Laub. [4]
CC1(C)CC(S(=O)(=O)Cc2cccc3ccsc23)=NO1 [10-0015] | 5 | 5 | 5 | 5
CC1(C)CC(S(=O)(=O)Cc2c(Cl)sc(Cl)c2Cl)=NO1 [2-0006] | 4 | 5 | 5 | 5
CC1(C)CC(S(=O)(=O)Cc2ccc(Cl)s2)=NO1 [1-0005] | 5 | 5 | 5 | 5
CC1(C)CC(S(=O)(=O)Cc2c(C(F)(F)F)nn(C3CCCCC3)c2Cl)=NO1 [3-0091] | 5 | 5 | 5 | 5
Cc1ccc(CS(=O)(=O)C2=NOC(C)(C)C2)s1 [1-0003] | 5 | 5 | 5 | 5
CC1(C)CC(S(=O)(=O)Cc2cc(Cl)sc2Cl)=NO1 [2-0005] | 5 | 5 | 5 | 5
CCC1(C)CC(S(=O)(=O)Cc2c(C(F)(F)F)nn(C)c2Cl)=NO1 (stereo not drawn) [3-0180] | 5 | 5 | 5 | 5
CC1(C)CC(S(=O)(=O)Cc2cc3ccccc3o2)=NO1 [10-0012] | 4 | 5 | 5 | 5
CC1(C)CC(S(=O)(=O)Cc2nc3ccccc3s2)=NO1 [10-0006] | 4 | 5 | 5 | 5
Cn1nc(C(F)(F)F)c(CS(=O)(=O)C2=NOC(C)(C)C2)c1OC(C)(C)C [3-0047] | 5 | 5 | 5 | 5
CCOc1c(CS(=O)(=O)C2=NOC(C)(C)C2)c(C(F)(F)F)nn1-c1ccccc1 [3-0156] | 5 | 5 | 5 | 5
Cn1ncc2cccc(CS(=O)(=O)C3=NOC(C)(C)C3)c21 [10-0016] | 4 | 5 | 5 | 5
COCCn1nc(Cl)c(CS(=O)(=O)C2=NOC(C)(C)C2)c1C(F)(F)F [3-0125] | 5 | 5 | 5 | 5
CC1(C)CC(S(=O)(=O)Cc2c(Cl)nn(CC(N)=O)c2C(F)(F)F)=NO1 [3-0139] | 5 | 5 | 5 | 5
Cn1nc(C(F)(F)F)c(CS(=O)(=O)C2=NOC(C)(C)C2)c1OC(F)F [3-0054] | 5 | 5 | 5 | 5
CC1(C)CC(S(=O)(=O)Cc2c(C(F)(F)F)nn(Cc3ccccc3)c2Cl)=NO1 [3-0087] | 5 | 5 | 5 | 5

Compound | herbicidal effect (index per standard of Table 21), Setaria viridis (L.) Beauv. [1] | herbicidal effect (index per standard of Table 21), Echinochloa curs-galli (L.) Beauv. Var. crus-galli [2] | Herbicidal effect index, Echinochloa oryzicola Vasing [3] | Herbicidal effect index, Monochoria vaginalis (Burm. F.) Presl var. plantaginea (Roxb.) Solms-Laub. [4]
CC1(C)CC(S(=O)(=O)Cc2sc3ccccc3c2Cl)=NO1 [10-0003] | 5 | 5 | 5 | 5
Cn1c(CS(=O)(=O)C2=NOC(C)(C)C2)c(Cl)c2ccccc21 [10-0018] | 5 | 5 | 5 | 5
Cn1ncc2c(CS(=O)(=O)C3=NOC(C)(C)C3)cccc21 [10-0005] | 5 | 5 | 5 | 5
CC1(C)CC(S(=O)(=O)Cc2c(Cl)nn(CC#N)c2C(F)(F)F)=NO1 [3-0135] | 5 | 5 | 5 | 5
CNC(=O)c1c(Cl)sc(Cl)c1CS(=O)(=O)C1=NOC(C)(C)C1 [2-0012] | 5 | 5 | 5 | 5
Cc1c(CS(=O)(=O)C2=NOC(C)(C)C2)oc2ccccc12 [10-0017] | 5 | 5 | 5 | 5
Cn1nc(-c2ccccc2)c(CS(=O)(=O)C2=NOC(C)(C)C2)c1Cl [3-0072] | 5 | 5 | 5 | 5
CC1(C)CC(S(=O)(=O)Cc2c(C(F)(F)F)nn(-c3ncccn3)c2Cl)=NO1 [3-0173] | 5 | 5 | 5 | 5
COc1cc(OC)nc(-n2nc(C(F)(F)F)c(CS(=O)(=O)C3=NOC(C)(C)C3)c2Cl)n1 [3-0174] | 5 | 5 | 5 | 5
CC1(C)CC(S(=O)(=O)Cc2c(C(F)(F)F)nn(CC#N)c2Cl)=NO1 [3-0134] | 5 | 5 | 5 | 5
Cn1nc(C(F)(F)F)c(CS(=O)(=O)C2=NOC(C)(C)C2)c1Oc1cccc(Cl)c1 [3-0061] | – | – | 5 | 5
Cn1nc(C(F)(F)F)c(CS(=O)(=O)C2=NOC(C)(C)C2)c1OCC1CCCC1 [3-0051] | – | – | 5 | 5
CC1(C)CC(S(=O)(=O)Cc2cc3ccccc3s2)=NO1 [10-0002] | – | – | 5 | 4
CC1(C)CC(S(=O)(=O)Cc2csc3ccc(Cl)cc23)=NO1 [10-0008] | – | – | 5 | 5
CC1(C)CC(S(=O)(=O)Cc2c(Cl)nn(CC3CCCCC3)c2C(F)(F)F)=NO1 [3-0103] | – | – | 5 | 5
